Assay results taken from patent US6221914A, “Sulfonamide bridging compounds that inhibit tryptase activity” (Array Biopharma Inc., priority 1998, dated 2001).

How the values were obtained:
Format in all cases: biochemical
Human lung tryptase = experiment: Ki determination, human lung tryptase (Tosyl-Gly-Pro-Arg-pNA substrate); conditions: 50 mM Tris-HCl pH 8.0, 37° C., 1 nM tryptase, 320 μM GPR-pNA; read-out: Experimentally Determined Ki, Tryptase
Procedure: (§1) Protease inhibition was assayed according to published procedures with minor modifications using various proteases and specific chromogenic peptide p-nitroanilide substrates. Assays were performed in Costar ultra-low cluster 96-well microtiter plate (Costar Corning Corp., Cambridge Mass.). Each protease was incubated with various concentrations of the test compound for 15 min. at 37° C. or as otherwise indicated, in specific assay buffer, and the residual activity was then measured by addition of the substrate. p-Nitroaniline produced by the proteolysis was determined by measuring the change in absorbance at 405 nm on a SpectraMAX 340 plate reader (Molecular devices, Sunnyvale, Calif.).
(§2) 1. The inhibition constant, Ki is calculated from individual data points using the equation for a tight-binding inhibitor (See Beith, "Proteinase Inhibitors-Proceedings of 2nd Int. Res. Conference", Fritz, et al. eds, New York, p.4463-4469 (1974)):
(§3) vi /vo [((Ki '+[I]+[E]o)^2 -4 [I]o
(§4) [E]o)^1/2 (Ki '+[I]o -[E]o)]/2[E]o
(§5) where Ki ' is apparent inhibition constant; vi and vo are the inhibited and uninhibited rates, respectively; [I]o and [E]o are the total concentrations of inhibitor and enzyme, respectively.
(§6) [note: [E]o is determined by active site titration of enzyme]
(§7) The Ki values are obtained by correcting Ki ' values for the effect of substrate concentration according to: [formula]
(§8) 2. Other inhibition data (Ki >>[E]o), the Ki is calculated from using the equations for a competitive inhibitor: [formula]
Human lung tryptase purchased from Cortex Biochem (San Leandro, Calif.) was purified further on a Superdex 200 gel-filtration column. The active-site concentration of the enzyme was determined by spectrophotometric titration with 4-nitrophenyl 4'-guanidinobenzoate according to Schwartz, et al., J. Immunol., 114, 2304-2311 (1990). Tryptase activity was measured according to the procedures of Schwartz, et al., J. Biol. Chem., 261, 7372-7379 (1986) (See also, Schwartz, L. B., Methods In Enzymology, 244, 88 (1994)) with minor modifications, using Tosyl-Gly-Pro-Arg-p-nitroanilide ("GPR-pNA", Sigma Chemical Co., St. Louis, Mo., T-1637) as a chromogenic substrate. The reaction was performed in 50 mM Tris-HCl, pH 8.0, containing 150 mM NaCl and 0.02% Triton X-100 at 37° C. in Costar ultra-low cluster 96-well microtiter plates (Costar Corning Corp., Cambridge, Mass.). The amount of pNA produced by tryptase was determined by measuring the change in absorbance at 405 nm on a SpectraMAX 340 plate reader (Molecular devices, Sunnyvale, Calif.). The Km for the substrate was determined by Lineweaver-Burk analysis from initial velocities of substrate hydrolysis. The inhibition assay was carried out in a total volume of 200 μL. Tryptase (30 μL- final concentration 1 nM) was incubated with various concentrations of sample compound (50 μL) to be tested in the above assay buffer for 5 min. The reaction was started by the addition of substrate GPR-pNA (40 μL-final concentration 320 μM), and the residual activity was measured after 15 min. of incubation. The inhibition constant, Ki, was determined by fitting the inhibition data to a two-site competitive binding equation using data analysis program GraphPad PRISM (GraphPad Software, Inc., San Diego, Calif.).
(§9) The inhibition constant (Ki) of the test compounds against each proteolytic enzyme was determined according to Zitnik et al., Biochem. Biophys. Res. Commun. 232, 687-697 (1997)).

[1] = target: T1, Bovine pancreatic Trypsin (Bos taurus, UniProt P00760); experiment: Ki determination, bovine pancreatic trypsin (N-a-Benzoyl-L-Arg-pNA); conditions: 50 mM Tris-HCl, pH 8.2, 20 mM CaCl2; read-out: Experimentally Determined Ki, Trypsin
T1 construct: from tissue; host or cells: bovine pancreas
T1 sequence (P00760 24-246): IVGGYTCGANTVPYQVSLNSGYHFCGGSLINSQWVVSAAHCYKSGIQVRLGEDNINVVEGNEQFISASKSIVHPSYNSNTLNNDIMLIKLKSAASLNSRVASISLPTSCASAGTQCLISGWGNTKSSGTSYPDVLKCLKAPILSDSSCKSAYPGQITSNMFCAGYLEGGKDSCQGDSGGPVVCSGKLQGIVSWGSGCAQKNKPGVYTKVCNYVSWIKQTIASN
Procedure: as §1, §2, §3, §4, §5, §6, §7, §8
Bovine pancreatic Trypsin (TPCK-treated) activity was determined by using N-a-Benzoyl-L-Arg-pNA in 50 mM Tris-HCl, pH 8.2, 20 mM CaCl2 (See Somorin, et al., J. Biochem. 85, 157-162 (1979)).
as §9

Human plasma thrombin = target: T2, Human plasma thrombin (Homo sapiens, UniProt P00734); experiment: Ki determination, human plasma thrombin (H-D-Phe-Pip-Arg-pNA); conditions: 50 mM Tris-HCl, pH 8.3, 100 mM NaCl, 1% BSA; read-out: Experimentally Determined Ki, Thrombin
T2 construct: from tissue; host or cells: human plasma
Procedure: as §1, §2, §3, §4, §5, §6, §7, §8
Human plasma thrombin activity was determined by using H-D-Phe-Pip-Arg-pNA in 50 mM Tris-HCl, pH 8.3, 100 mM NaCl, 1% BSA (See Lottenberg, et al. Meth. Enzymol. 80, 341-361 (1981)).
as §9

Human plasma factor Xa = target: T3, Human plasma factor Xa (Homo sapiens, UniProt P00742); experiment: Ki determination, human plasma factor Xa (N-Benzoyl-Ile-Glu-Gly-Arg-pNA); conditions: 50 mM Tris-HCl, pH 7.8, 200 mM NaCl, 0.05% BSA; read-out: Experimentally Determined Ki, Factor Xa
T3 construct: from tissue; host or cells: human plasma
Procedure: as §1, §2, §3, §4, §5, §6, §7, §8
Human plasma factor Xa activity was determined by using N-Benzoyl-Ile-Glu-Gly-Arg-pNA in 50 mM Tris-HCl, pH 7.8, 200 mM NaCl, 0.05% BSA (See Lottenberg, et al. Meth. Enzymol. 80, 341-361 (1981)).
as §9

r-tissue kallikrein = r-tissue kallikrein (Homo sapiens, UniProt P06870); experiment: Ki determination, r-tissue kallikrein (DL-Val-Leu-Arg-pNA); conditions: 50 mM Tris-HCl, pH 7.8, 200 mM NaCl, 0.05% BSA; read-out: Experimentally Determined Ki, Tissue Kallikrein
Procedure: as §1, §2, §3, §4, §5, §6, §7, §8
(§10) I. Human Plasma and r-Tissue Kallikrein
(§11) Human plasma and r-tissue kallikrein activity were determined in 50 mM Tris-HCl, pH 7.8, 200 mM NaCl, 0.05% BSA by using H-D-Prolyl-Phe-Arg-pNA and DL-Val-Leu-Arg-pNA, respectively (See Lottenberg, et al., Meth. Enzymol. 80, 341-361 (1981)).
as §9

Human plasma kallikrein = target: T4, Human plasma kallikrein (Homo sapiens, UniProt P03952); experiment: Ki determination, human plasma kallikrein (H-D-Prolyl-Phe-Arg-pNA); conditions: 50 mM Tris-HCl, pH 7.8, 200 mM NaCl, 0.05% BSA; read-out: Experimentally Determined Ki, Plasma Kallikrein
T4 construct: from tissue; host or cells: human plasma
Procedure: as §1, §2, §3, §4, §5, §6, §7, §8, §10, §11, §9

Human plasma plasmin = target: T5, Human plasma plasmin (Homo sapiens, UniProt P00747); experiment: Ki determination, human plasma plasmin (Tosyl-Gly-Pro-Lys-pNA); conditions: 100 mM Tris-HCl, pH 7.4, 100 mM NaCl, 0.05% Triton X-100; read-out: Experimentally Determined Ki, Plasmin
T5 construct: from tissue; host or cells: human plasma
Procedure: as §1, §2, §3, §4, §5, §6, §7, §8
Human plasma plasmin activity was determined by using Tosyl-Gly-Pro-Lys-pNAin 100 mM Tris-HCl, pH 7.4, 100 mM NaCl, 0.05% Triton X-100 (See Lottenberg, et al., Meth. Enzymol. 80, 341-361 (1981)).
as §9

[2] = target: T6, Human Neutrophil elastase (Homo sapiens, UniProt P08246); experiment: Ki determination, human neutrophil elastase (pyroGlu-Pro-Val-pNA); conditions: 100 mM Tris-HCl, pH 8.3, 0.96 M NaCl, 1% BSA; read-out: Experimentally Determined Ki, Elastase
T6 construct: from tissue; host or cells: human neutrophils
T6 sequence (P08246 30-267): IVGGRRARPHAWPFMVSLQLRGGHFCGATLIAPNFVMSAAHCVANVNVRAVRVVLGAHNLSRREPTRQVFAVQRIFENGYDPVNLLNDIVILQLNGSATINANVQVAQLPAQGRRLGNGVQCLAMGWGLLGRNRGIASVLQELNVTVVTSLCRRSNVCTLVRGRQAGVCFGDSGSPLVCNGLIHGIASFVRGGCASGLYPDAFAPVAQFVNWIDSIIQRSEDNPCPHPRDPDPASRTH
Procedure: as §1, §2, §3, §4, §5, §6, §7, §8
Human Neutrophil elastase activity was determined by using pyroGlu-Pro-Val-pNA in 100 mM Tris-HCl, pH 8.3, 0.96 M NaCl, 1% BSA (See Kramps, et al. Scand. J. Clin. Lab. Invest. 43, 427-432 (1983)).
as §9

[3] = target: T7, Human Neutrophil Cathepsin G (Homo sapiens, UniProt P08311); experiment: Ki determination, human neutrophil cathepsin G (N-Suc-Ala-Ala-Pro-Phe-pNA); conditions: 625 mM Tris-HCl, pH 7.5, 2.5 mM MgCl2, 0.125% Brij 35; read-out: Experimentally Determined Ki, Cathepsin G
T7 construct: from tissue; host or cells: human neutrophils
T7 sequence (P08311 21-255): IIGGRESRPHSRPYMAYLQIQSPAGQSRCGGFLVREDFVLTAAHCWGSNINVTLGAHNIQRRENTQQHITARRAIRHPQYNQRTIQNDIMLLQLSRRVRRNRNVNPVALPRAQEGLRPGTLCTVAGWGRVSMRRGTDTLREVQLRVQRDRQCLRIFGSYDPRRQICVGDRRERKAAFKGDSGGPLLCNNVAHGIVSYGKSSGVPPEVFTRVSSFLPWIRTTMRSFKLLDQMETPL
Procedure: as §1, §2, §3, §4, §5, §6, §7, §8
Human Neutrophil Cathepsin G activity was determined by using N-Suc-Ala-Ala-Pro-Phe-pNA in 625 mM Tris-HCl, pH 7.5, 2.5 mM MgCl2, 0.125% Brij 35 (See Groutas et al., Arch. Biochem. Biophys. 294, 144-146 (1992)).
as §9

[4] = target: T8, Bovine Pancreatic Chymotrypsin (Bos taurus, UniProt P00766); experiment: Ki determination, bovine pancreatic chymotrypsin (N-Suc-Ala-Ala-Pro-Phe-pNA); conditions: 100 mM Tris-HCl, pH 7.8, 10 mM CaCl2; read-out: Experimentally Determined Ki, Chymotrypsin
T8 construct: from tissue; host or cells: bovine pancreas
Procedure: as §1, §2, §3, §4, §5, §6, §7, §8
Bovine Pancreatic Chymotrypsin activity was determined by using N-Suc-Ala-Ala-Pro-Phe-pNA in 100 mM Tris-HCl, pH 7.8, 10 mM CaCl2 (See Delmar, et al., J. Biochem. 85, 157-162 (1979)).
as §9

T5 sequence (P00747 581-810 limits assumed): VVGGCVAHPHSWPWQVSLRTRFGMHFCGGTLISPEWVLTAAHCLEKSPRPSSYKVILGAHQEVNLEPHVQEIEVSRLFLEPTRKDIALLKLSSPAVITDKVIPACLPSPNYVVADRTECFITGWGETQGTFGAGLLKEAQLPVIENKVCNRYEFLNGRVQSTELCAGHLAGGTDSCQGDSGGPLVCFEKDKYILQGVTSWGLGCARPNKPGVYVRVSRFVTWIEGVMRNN
T5 sequence (P00747 97-580 partner limits assumed): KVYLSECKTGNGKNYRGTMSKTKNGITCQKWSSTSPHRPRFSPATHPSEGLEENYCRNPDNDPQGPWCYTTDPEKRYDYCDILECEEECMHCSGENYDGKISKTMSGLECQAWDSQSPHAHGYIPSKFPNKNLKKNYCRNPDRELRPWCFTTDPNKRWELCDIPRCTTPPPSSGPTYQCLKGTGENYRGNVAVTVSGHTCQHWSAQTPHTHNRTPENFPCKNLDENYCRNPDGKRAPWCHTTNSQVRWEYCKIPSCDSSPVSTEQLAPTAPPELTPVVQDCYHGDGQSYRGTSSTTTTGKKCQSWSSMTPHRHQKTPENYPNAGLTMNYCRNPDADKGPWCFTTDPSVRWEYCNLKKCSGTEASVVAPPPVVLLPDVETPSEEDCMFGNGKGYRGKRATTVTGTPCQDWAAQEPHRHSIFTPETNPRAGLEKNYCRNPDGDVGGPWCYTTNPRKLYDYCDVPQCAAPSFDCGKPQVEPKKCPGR
T4 sequence (P03952 391-638 limits assumed): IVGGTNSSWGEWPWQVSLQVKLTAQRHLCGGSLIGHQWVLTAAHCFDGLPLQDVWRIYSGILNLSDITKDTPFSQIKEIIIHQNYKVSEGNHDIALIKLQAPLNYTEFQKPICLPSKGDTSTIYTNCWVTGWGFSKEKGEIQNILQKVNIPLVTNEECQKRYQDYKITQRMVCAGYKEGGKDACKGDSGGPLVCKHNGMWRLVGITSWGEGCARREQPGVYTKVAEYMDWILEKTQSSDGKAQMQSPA
T4 sequence (P03952 20-390 partner limits assumed): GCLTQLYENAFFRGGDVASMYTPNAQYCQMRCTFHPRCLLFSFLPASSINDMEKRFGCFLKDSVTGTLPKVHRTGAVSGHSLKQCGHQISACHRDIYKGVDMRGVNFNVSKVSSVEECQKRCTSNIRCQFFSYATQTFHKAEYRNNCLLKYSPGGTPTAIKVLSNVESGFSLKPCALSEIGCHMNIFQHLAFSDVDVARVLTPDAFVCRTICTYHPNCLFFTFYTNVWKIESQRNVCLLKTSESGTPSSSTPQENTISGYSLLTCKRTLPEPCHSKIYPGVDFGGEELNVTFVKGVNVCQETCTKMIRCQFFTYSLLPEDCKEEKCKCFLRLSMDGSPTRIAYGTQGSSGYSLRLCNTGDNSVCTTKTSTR
Chain of r-tissue kallikrein (P06870 25-262): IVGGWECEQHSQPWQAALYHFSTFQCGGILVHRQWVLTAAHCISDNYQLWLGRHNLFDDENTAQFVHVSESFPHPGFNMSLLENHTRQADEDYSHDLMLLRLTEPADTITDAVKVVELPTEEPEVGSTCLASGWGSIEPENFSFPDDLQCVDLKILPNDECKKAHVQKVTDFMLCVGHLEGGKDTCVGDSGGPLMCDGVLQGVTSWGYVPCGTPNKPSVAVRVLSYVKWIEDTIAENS
T3 sequence (P00742 235-488 limits assumed): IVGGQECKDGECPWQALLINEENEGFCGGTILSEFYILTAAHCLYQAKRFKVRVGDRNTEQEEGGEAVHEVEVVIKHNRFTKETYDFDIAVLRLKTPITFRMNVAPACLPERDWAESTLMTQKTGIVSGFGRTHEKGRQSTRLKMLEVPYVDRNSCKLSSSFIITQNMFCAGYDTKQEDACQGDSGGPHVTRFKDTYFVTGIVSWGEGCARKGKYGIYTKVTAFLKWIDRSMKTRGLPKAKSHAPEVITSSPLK
T3 sequence (P00742 41-179 partner limits assumed): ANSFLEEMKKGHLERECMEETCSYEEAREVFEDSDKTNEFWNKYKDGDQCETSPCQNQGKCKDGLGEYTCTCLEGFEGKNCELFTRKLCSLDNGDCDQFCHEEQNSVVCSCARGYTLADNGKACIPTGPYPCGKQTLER

Ki (Human lung tryptase) | Ki [1] | Ki (Human plasma thrombin) | Ki (Human plasma factor Xa) | Ki (r-tissue kallikrein) | Ki (Human plasma kallikrein) | Ki (Human plasma plasmin) | Ki [2] | Ki [3] | Ki [4] | Structure (SMILES)
1.5 µM |  |  |  |  |  |  |  |  |  | N=C(N)c1ccc(S(=O)(=O)NCc2ccc(OCCOc3ccc(CNS(=O)(=O)c4ccc(C(=N)N)cc4)cc3)cc2)cc1 [Example 52, 1,2-Bis-{4-[(4-carbamimidoyl-benzenesulfonylamino)-methyl]-phenoxy}-ethane]
 | 1.4 µM | > 100 µM | 40 µM | 16 µM | 9 µM | 3.7 µM | > 100 µM | > 100 µM | > 100 µM | N=C(N)c1ccc(S(=O)(=O)NCc2cccc(OCCCCCOc3cccc(CNS(=O)(=O)c4ccc(C(=N)N)cc4)c3)c2)cc1 [Example 74, 1,5-Bis-{3-[(4-carbamimidoyl-benzenesulfonylamino)-methyl]-phenoxy}-pentane]
 | 3 µM | > 100 µM | 6 µM | > 100 µM | 2.9 µM | > 100 µM | > 100 µM | > 100 µM | > 100 µM | N=C(N)c1cccc(S(=O)(=O)NCc2cccc(OCCCCCOc3cccc(CNS(=O)(=O)c4cccc(C(=N)N)c4)c3)c2)c1 [Example 75, 1,5-Bis-{3[-(3-carbamimidoyl-benzenesulfonylamino)-methyl]-phenoxy}-pentane]
0.002 µM |  |  |  |  |  |  |  |  |  | N=C(N)c1ccc2[nH]c(CC(=O)NCc3ccc(CNCCNCc4ccc(CNC(=O)Cc5nc6cc(C(=N)N)ccc6[nH]5)cc4)cc3)nc2c1 [Example 119]
